Test results reported in patent US20220204539A1, “CD73 INHIBITORS” (BioArdis LLC, priority 2019, published 2022).

Assays:
[1] = biological target: T1, Recombinant Human 5′-Nucleotidase (CD73) (Homo sapiens, UniProt P21589); assay: CD73 Enzyme Assay; format: biochemical; conditions: human CD73 0.5 nM, AMP 30 μM, PiColorLock phosphate detection; read-out: Potency (IC50, CD73 enzyme assay)
T1 construct: CHO derived CD73 (Trp27-Lys547), with a C-terminal 6-His tag; 6-His (C); purchased R&D 5795-EN; host or cells: CHO
T1 sequence (P21589 27-547): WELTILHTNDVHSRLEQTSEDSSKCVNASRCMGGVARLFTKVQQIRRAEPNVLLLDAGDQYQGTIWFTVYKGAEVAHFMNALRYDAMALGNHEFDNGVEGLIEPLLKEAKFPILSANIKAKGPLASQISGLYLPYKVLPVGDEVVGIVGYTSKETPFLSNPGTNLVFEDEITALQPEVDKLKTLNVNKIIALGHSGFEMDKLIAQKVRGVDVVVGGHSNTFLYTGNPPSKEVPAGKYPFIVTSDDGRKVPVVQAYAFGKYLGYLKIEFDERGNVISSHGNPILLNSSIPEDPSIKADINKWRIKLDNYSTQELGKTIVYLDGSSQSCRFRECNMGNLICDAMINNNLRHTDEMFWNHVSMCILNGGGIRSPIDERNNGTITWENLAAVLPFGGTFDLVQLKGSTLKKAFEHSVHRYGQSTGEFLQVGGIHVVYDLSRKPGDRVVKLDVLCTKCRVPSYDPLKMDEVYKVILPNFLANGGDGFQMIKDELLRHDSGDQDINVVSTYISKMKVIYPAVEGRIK
Method in brief: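 Human CD73 (CHO-derived Trp27-Lys547, His-tagged; 0.5 nM final) was preincubated with compound for 15 min at 25° C. in Tris pH 7.5 buffer with MgCl2. It then reacted with 30 μM AMP for 20 min at 37° C., and released phosphate was read by malachite green absorbance at 635 nm. IC50 came from four-parameter fits against enzyme and no-enzyme controls.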

[2] = biological target: T2, Cell surface CD73 of U87 MG human glioblastoma cells (Homo sapiens, UniProt P21589); assay: CD73 Cellular Assay; format: cell-based; conditions: 5000 cells per well, 30 μM AMP substrate, read-out: Potency (IC50, CD73 cellular assay)
T2 construct: Cell surface CD73 catalyzes the conversion of adenosine monophosphate (AMP) to adenosine and inorganic phosphate; endogenous in cells; host or cells: U87 MG human glioblastoma cells
T2 sequence (P21589 27-549): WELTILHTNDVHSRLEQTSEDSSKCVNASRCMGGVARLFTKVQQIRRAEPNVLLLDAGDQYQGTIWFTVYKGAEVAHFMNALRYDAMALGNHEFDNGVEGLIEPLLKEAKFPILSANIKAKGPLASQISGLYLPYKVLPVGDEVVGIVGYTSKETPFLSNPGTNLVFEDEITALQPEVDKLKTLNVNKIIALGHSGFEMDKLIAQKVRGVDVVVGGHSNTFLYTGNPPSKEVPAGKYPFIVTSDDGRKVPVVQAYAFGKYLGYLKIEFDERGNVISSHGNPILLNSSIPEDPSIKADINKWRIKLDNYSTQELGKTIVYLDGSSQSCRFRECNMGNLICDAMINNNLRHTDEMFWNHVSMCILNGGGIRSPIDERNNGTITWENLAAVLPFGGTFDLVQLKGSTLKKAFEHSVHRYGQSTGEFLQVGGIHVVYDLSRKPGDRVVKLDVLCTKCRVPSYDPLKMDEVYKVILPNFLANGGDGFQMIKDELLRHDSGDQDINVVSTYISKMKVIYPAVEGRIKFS
Method: Cell surface CD73 catalyzes the conversion of adenosine monophosphate (AMP) to adenosine and inorganic phosphate. U87 MG human glioblastoma cells express high level of CD73. Cells are treated with compounds in a 96-well assay plate and supernatants are collected into a 384-well detection plate. The concentration of inorganic phosphate (Pi) in the supernatants is determined using the phosphate detection reagent, PiColorLock™ (Innova Bioscience, Cat #303-0125) following the manufacturer's instructions.
Briefly, on the day of the assay, U87 MG cells were harvested and resuspended in assay buffer which consisted of 20 mM HEPES, pH=7.4, 137 mM NaCl, 5.4 mM KCl, 1.3 mM CaCl2, 4.2 mM NaHCO3 and 0.1% glucose. To test the effect of compounds on cellular CD73 enzymatic activity, 500 nL/well of compounds dissolved in DMSO were added to a 96-well TC-treated microplate (Corning #3599). Next, 80 μL/well of U87 MG cells in assay buffer were added to assay plate. After 30 minutes of incubation in an atmosphere of 5% CO2 at 37° C., 20 μL/well of 150 μM AMP (Adenosine 5′-monophosphate monohydrate, Sigma, Cat #01930) in assay buffer was added to assay plate. Final assay conditions consisted of 5000 cells per well in 0.5% DMSO and 30 μM AMP substrate. After 50 minutes of incubation in an atmosphere of 5% CO2 at 37° C., 50 μL/well of supernatant was transferred to the 384-well detection plate (Corning® NBS™ 384 well plates, Cat #3640). Meanwhile “Gold mix” was prepared shortly before use by adding 1/100 volume of accelerator to the PiColorLock™ Gold reagent. 12 μL/well of the “Gold mix” was added to detection plate containing 50 μL/well of supernatant and incubated at 25° C. for 5 minutes. 5 μL/well stabilizer was added to the detection plate and incubated at 25° C. for 30 minutes. The absorbance at 635 nm was measured on a Spark 10M instrument (TECAN). The percent (%) inhibition at each concentration of a compound was calculated relative to the OD value in the Max and Min control wells contained within each assay plate. The Max control wells contained cells and substrate as 0% inhibition, and the Min control wells only contained cells as 100% inhibition. The concentrations and percent inhibition values for a test compound are plotted and the concentration of a the compound required to achieve 50% inhibition (IC50) was determined with a four-parameter logistic dose response equation.

SMILES	IC50 [1] [nM]	IC50 [2] [nM]
C[C@H](Nc1nc(Cl)nn2c([C@@H]3O[C@H](COP(=O)(O)CP(=O)(O)O)[C@@H](O)[C@H]3O)cnc12)c1ccccc1F [Compound 32, (((((2R,3S,4R,1S)-5-(2-chloro-4-(((S)-1-(2-fluorophenyl)ethyl)amino)imidazo[2,1-f][1,2,4]triazin-7-yl)-3,4-dihydroxytetrahydrofuran-2-yl)methoxy)(hydroxy)phosphoryl)-methyl)phosphonic Acid]	< 10	< 1
C[C@H](Nc1nc(Cl)nn2c([C@@H]3O[C@H](COP(=O)(O)CP(=O)(O)O)[C@@H](O)[C@H]3O)cnc12)c1cncc(F)c1 [Compound 33, (((((2R,3S,4R,5S)-5-(2-chloro-4-(((S)-1-(5-fluoropyridin-3-yl)ethyl)amino)imidazo[2,1-f][1,2,4]triazin-7-yl)-3,4-dihydroxytetrahydrofuran-2-yl)methoxyxhydroxy)phosphoryl)methyl)phosphonic acid]	< 10	1 to 9.9
C[C@H](Nc1nc(Cl)nn2c([C@@H]3O[C@H](COP(=O)(O)CP(=O)(O)O)[C@@H](O)[C@H]3O)cnc12)c1ccccc1 [Compound 35, (((((2R,3S,4R,1S)-5-(2-chloro-4-(((S)-1-phenylethyl)amino)imidazo[2,1-f][1,2,4]triazin-7-yl)-3,4-dihydroxytetrahydrofuran-2-yl)methoxy)(hydroxy)phosphoryl)methyl)phosphonic Acid]	< 10	< 1
C[C@H](Nc1nc(Cl)nn2c([C@@H]3O[C@H](COP(=O)(O)CP(=O)(O)O)[C@@H](O)[C@H]3O)cnc12)c1cccc(F)c1 [Compound 36, (((((2R,3S,4R,5S)-5-(2-chloro-4-(((S)-1-(3-fluorophenyl)ethyl)amino)imidazo[2,1-f][1,2,4]triazin-7-yl)-3,4-dihydroxytetrahydrofuran-2-yl)methoxy)(hydroxy)phosphoryl)methyl) phosphonic acid]	< 10	< 1
C[C@H](Nc1nc(Cl)nn2c([C@@H]3O[C@H](COP(=O)(O)CP(=O)(O)O)[C@@H](O)[C@H]3O)cnc12)c1ccc(F)cc1 [Compound 37, (((((2R,3S,4R,1S)-5-(2-chloro-4-(((S)-1-(4-fluorophenyl)ethyl)amino)imidazo[2,1-f][1,2,4]triazin-7-yl)-3,4-dihydroxytetrahydrofuran-2-yl)methoxy)(hydroxy)phosphoryl)methyl)phosphonic Acid]	< 10	< 1
O=P(O)(O)CP(=O)(O)OC[C@H]1O[C@@H](c2cnc3c(N4CCCCC4)nc(Cl)nn23)[C@H](O)[C@@H]1O [Compound 43, (((((2R,3S,4R,1S)-5-(2-chloro-4-(piperidin-1-yl)imidazo[2,1-f][1,2,4]triazin-7-yl)-3,4-dihydroxytetrahydrofuran-2-yl)methoxy)(hydroxy)phosphoryl)methyl)phosphonic Acid]	< 10	< 1

The remaining lines, values ahead:

IC50 [1] [nM]	IC50 [2] [nM]	SMILES
< 10	< 1	CN(c1nc(Cl)nn2c([C@@H]3O[C@H](COP(=O)(O)CP(=O)(O)O)[C@@H](O)[C@H]3O)cnc12)[C@H]1CCc2ccccc21 [Compound 30, (((((2R,3S,4R,1S)-5-(2-chloro-4-(((S)-2,3-dihydro-1H-inden-1-yl)(methyl)amino)imidazo[2,1-f][1,2,4]triazin-7-yl)-3,4-dihydroxytetrahydrofuran-2-yl)methoxy)(hydroxy)phosphoryl)methyl)phosphonic Acid]
< 10	1 to 9.9	C[C@@H](Nc1nc(Cl)nn2c([C@@H]3O[C@H](COP(=O)(O)CP(=O)(O)O)[C@@H](O)[C@H]3O)cnc12)c1ccccc1 [Compound 34, [({[(2R,3S,4R,5S)-5-(2-chloro-4-{[(1R)-1-phenylethyl]amino}imidazo[2,1-f][1,2,4]triazin-7-yl)-3,4-dihydroxyoxolan-2-yl]methoxy}(hydroxy)phosphoryl)methyl]phosphonic Acid]
< 10	< 1	CC(C)[C@@H]1CCCN1c1nc(Cl)nn2c([C@@H]3O[C@H](COP(=O)(O)CP(=O)(O)O)[C@@H](O)[C@H]3O)cnc12 [Compound 39, (((((2R,3S,4R,1S)-5-(2-chloro-4-((S)-2-isopropylpyrrolidin-1-yl)imidazo[2,1-f][1,2,4]triazin-7-yl)-3,4-dihydroxytetrahydrofuran-2-yl)methoxy)(hydroxy)phosphoryl)methyl)phosphonic acid]
< 10	1 to 9.9	O=P(O)(O)CP(=O)(O)OC[C@H]1O[C@@H](c2cnc3c(N4CCCC45CCCC5)nc(Cl)nn23)[C@H](O)[C@@H]1O [Compound 40, (((((2R,3S,4R,1S)-5-(2-chloro-4-(1-azaspiro[4.4]nonan-1-yl)imidazo[2,1-f][1,2,4]triazin-7-yl)-3,4-dihydroxytetrahydrofuran-2-yl)methoxy)(hydroxy)phosphoryl)methyl)phosphonic Acid]
< 10	< 1	O=P(O)(O)CP(=O)(O)OC[C@H]1O[C@@H](c2cnc3c(N4CCCC45CCC5)nc(Cl)nn23)[C@H](O)[C@@H]1O [Compound 41, [({[(2R,3S,4R,5S)-5-(4-{5-azaspiro[3.4]octan-5-yl}-2-chloroimidazo[2,1-f][1,2,4]triazin-7-yl)-3,4-dihydroxyoxolan-2-yl]methoxy}(hydroxy)phosphoryl)methyl]phosphonic Acid]
< 10	< 1	O=P(O)(O)CP(=O)(O)OC[C@H]1O[C@@H](c2cnc3c(N4CCOCC4)nc(Cl)nn23)[C@H](O)[C@@H]1O [Compound 42, (((((2R,3S,4R,5S)-5-(2-chloro-4-morpholinoimidazo[2,1-f][1,2,4]triazin-7-yl)-3,4-dihydroxytetrahydrofuran-2-yl)methoxyxhydroxy)phosphoryl)methyl)phosphonic acid]
< 10	< 1	O=P(O)(O)CP(=O)(O)OC[C@H]1O[C@@H](c2cnc3c(N4CCC(F)(F)CC4)nc(Cl)nn23)[C@H](O)[C@@H]1O [Compound 44, (((((2R,3S,4R,1S)-5-(2-chloro-4-(4,4-difluoropiperidin-1-yl)imidazo[2,1-f][1,2,4]triazin-7-yl)-3,4-dihydroxytetrahydrofuran-2-yl)methoxy)(hydroxy)phosphoryl)methyl)phosphonic Acid]
